Reference: ChEMBL document CHEMBL1126814, “Oxindole N-Methyl-D-Aspartate (NMDA) antagonists” (Bioorg Med Chem Lett, 1993)

What was measured:
[1] = Ratio of the IC50s of the two assays (alpha1 adrenoceptor binding assay/GT functional assay) used as an estimate of Therapeutic Index
[2] = molecular target: T1, Adrenergic receptor alpha-1 (Rattus norvegicus, UniProt P15823+P23944+P43140); assay: Tested for the Alpha-1 adrenergic receptor affinity in a standard radioligand binding assay with [3H]- prazosin; type: protein assay
T1 sequence (P15823 whole entry): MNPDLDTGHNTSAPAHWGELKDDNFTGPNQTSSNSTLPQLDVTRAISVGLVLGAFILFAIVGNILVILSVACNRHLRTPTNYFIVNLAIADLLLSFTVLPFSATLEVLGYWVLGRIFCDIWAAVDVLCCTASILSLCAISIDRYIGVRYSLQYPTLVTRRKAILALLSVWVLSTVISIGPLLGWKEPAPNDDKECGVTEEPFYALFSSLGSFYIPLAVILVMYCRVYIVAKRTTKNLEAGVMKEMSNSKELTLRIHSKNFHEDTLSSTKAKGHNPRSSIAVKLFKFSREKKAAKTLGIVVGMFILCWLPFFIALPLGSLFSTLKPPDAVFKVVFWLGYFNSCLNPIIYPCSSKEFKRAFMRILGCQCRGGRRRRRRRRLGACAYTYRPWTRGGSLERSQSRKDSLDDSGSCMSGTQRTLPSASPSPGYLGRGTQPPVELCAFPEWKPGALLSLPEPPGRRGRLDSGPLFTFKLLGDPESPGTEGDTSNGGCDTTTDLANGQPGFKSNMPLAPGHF
T1 sequence (P23944 whole entry): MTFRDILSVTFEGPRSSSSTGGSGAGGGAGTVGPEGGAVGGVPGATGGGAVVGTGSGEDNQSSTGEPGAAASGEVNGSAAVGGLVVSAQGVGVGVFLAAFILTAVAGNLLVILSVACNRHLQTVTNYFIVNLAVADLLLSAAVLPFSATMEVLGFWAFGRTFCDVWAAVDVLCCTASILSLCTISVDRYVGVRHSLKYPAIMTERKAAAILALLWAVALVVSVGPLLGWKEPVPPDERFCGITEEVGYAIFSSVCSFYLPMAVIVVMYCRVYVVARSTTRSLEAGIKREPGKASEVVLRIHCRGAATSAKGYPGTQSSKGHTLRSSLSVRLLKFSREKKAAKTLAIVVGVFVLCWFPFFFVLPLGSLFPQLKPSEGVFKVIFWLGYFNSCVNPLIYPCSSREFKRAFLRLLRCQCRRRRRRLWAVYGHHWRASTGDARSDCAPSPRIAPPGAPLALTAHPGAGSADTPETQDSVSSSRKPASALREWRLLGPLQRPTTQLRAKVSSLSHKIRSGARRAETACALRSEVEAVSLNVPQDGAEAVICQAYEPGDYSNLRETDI
T1 sequence (P43140 whole entry): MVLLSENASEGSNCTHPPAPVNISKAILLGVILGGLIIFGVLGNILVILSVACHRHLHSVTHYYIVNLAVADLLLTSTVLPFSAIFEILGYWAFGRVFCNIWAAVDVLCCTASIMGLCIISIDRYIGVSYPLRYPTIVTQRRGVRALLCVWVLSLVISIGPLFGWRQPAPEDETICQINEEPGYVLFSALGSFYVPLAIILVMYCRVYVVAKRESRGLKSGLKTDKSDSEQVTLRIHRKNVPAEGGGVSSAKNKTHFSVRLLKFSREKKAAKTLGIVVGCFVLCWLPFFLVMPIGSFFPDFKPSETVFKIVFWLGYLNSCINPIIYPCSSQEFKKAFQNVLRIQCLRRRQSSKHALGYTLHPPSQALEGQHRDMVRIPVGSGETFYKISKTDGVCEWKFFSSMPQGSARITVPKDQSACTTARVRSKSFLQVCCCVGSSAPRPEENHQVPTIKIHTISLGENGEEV

Row | Structure (SMILES) | IC50 [2] [µM] | TI [1]
1 | C[C@@H]([C@H](O)c1ccc(O)cc1)N1CCC(Cc2ccccc2)CC1 [(R,S)-IFENPRODIL] | 0.1 | 0.38
2 | C[C@@H]([C@H](O)c1ccc2c(c1)CC(=O)N2)N1CCC(Cc2ccccc2)CC1 | 0.1 | 0.4
3 | C[C@@H]([C@@H](O)c1ccc(O)cc1)N1CCC(Cc2ccccc2)CC1 |  | 15.3

More lines, main results first:

Row | IC50 [2] [µM] | Structure (SMILES) | TI [1]
4 | 0.349 | C[C@@H]([C@@H](O)c1ccc2c(c1)CC(=O)N2)N1CCC(c2ccccc2)CC1 | 8.7
5 | 0.71 | C[C@@H]([C@@H](O)c1ccc2c(c1)CC(=O)N2)N1CCC(Cc2ccccc2)CC1 | 6.4
6 | 0.8 | OC(CN1CCC(Cc2ccc(F)cc2)CC1)c1ccc(Cl)cc1 (stereo not drawn) [ELIPRODIL] | 0.8
7 | 0.183 | O=C1Cc2cc(C(O)CN3CCC(Cc4ccc(F)cc4)CC3)ccc2N1 (stereo not drawn) | 0.3
